Laboratory results as given in article PMC6144582, “The Binding of BF-227-Like Benzoxazoles to Human α-Synuclein and Amyloid β Peptide Fibrils” (Molecular Imaging, 2018).
Like-named read-outs stand apart in the source and are kept apart here.

Assays:
Aβ1-42 fibrils = target: T1, Aβ1-42 fibrils (Homo sapiens, UniProt P05067); assay: Competition binding against 5 nM [3H]BF-227 on Aβ1-42 fibrils; conditions: 5 nM [3H]BF-227, Cheng-Prusoff; geometric mean (low; high errors of the geometric mean); read-out: Aβ Ki
T1 construct: Aβ1-42 peptide 5 mg, Cat #20276-5 (Anaspec, Fremont, California); purchased Anaspec 20276-5
Description: The clear peptide solution was transferred to a 15 mL conical tube. […] Subsequently, 4 mL of Milli-Q-H2O was added to the conical tube followed by the addition of 125 µL of 1 M Tris–HCl, pH 7.5 with gentle mixing of the solution. The final volume was 5 mL, with the starting peptide concentration at 1 mg/mL. The peptide solution was divided into 5 × 1 mL aliquots with 1.5 mL Eppendorf tubes and incubated for 72 hours at 37°C with shaking at 1000 rpm in an Eppendorf Thermomixer. […] Fibril stock solutions were stored at −80°C.
(§1) Experiments were performed in 50 mM Tris–HCl pH 7.5, 150 mM NaCl, and 0.1% bovine serum albumin in a reaction volume of 200 µL. Incubations were initiated with the addition of human α-Syn ([…]) or Aβ1-42 (0.1 μM/well) fibrils at room temperature and terminated 2 hours later by rapid vacuum filtration over Whatman GF/C 96-well Unifilters (Brandel [Gaithersburg, Maryland]) presoaked in cold wash buffer (50 mM Tris–HCl, pH7.4), followed by four 200 µL washes with cold wash buffer. Filters containing bound ligand were mixed with 50 µL Microscint-PS (Perkin-Elmer [Waltham, Massachusetts]) and counted with a MicroBeta2 Scintillation Counter (Perkin Elmer). All data points were performed in triplicate. Values for the saturation binding dissociation constant (KD) and the maximal number of binding sites (Bmax) were determined by fitting the data to the equation Y = Bmax × X/(X + KD) using nonlinear regression analysis. IC50 values were generated from the concentration–response curves using nonlinear regression analysis and converted to Ki values with the Cheng-Prusoff equation.[7]
Results are expressed as inhibition constants (Ki, nM) corrected for ligand occupancy.[7] Each value is a geometric mean from the indicated numbers of experiments (n), with the numbers in parentheses indicating the low and high errors of the geometric mean. […] These can be compared with means for the 5 Aβ imaging agents which can serve as an empirical training set to judge the likely in vivo behavior of new compounds.

human α-Syn fibrils = target: T2, human α-Syn fibrils (Homo sapiens, UniProt P37840); assay: Competition binding against 5 nM [3H]BF-227 on α-Syn fibrils; conditions: for Ki: 5 nM [3H]BF-227, Cheng-Prusoff, geometric mean (low; high errors of the geometric mean); for Ki(Aβ)/Ki(α-Syn): selectivity for α-Syn binding, ratio of Ki on Aβ fibrils to Ki on α-Syn fibrils
T2 construct: Human full-length α-Syn (NM_000345) was cloned; made in house; host or cells: Escherichia coli BL21 (D3)
Description: Human full-length α-Syn (NM_000345) was cloned into the ampicillin-resistant Escherichia coli expression vector PET7-7 and transformed into BL21 (D3) strains for expression. The recombinant α-Syn was expressed and purified to ≥95% purity as described previously.[6] The monomeric α-Syn was formulated in 10 mM Tris–HCl, pH 7.6, 50 mM NaCl at 5 mg/mL. For fibril formation, 500 µL of purified α-Syn monomer was subjected to continuous shaking at 1000 rpm in an Eppendorf Thermomixer at 37°C for 7 days. The monomer was removed from fibrils by high-speed centrifugation with a Beckman-Coulter tabletop Optima MAX-XP (Beckman-Coulter, Indianapolis, Indiana) ultra-centrifuge at 600 000g for 40 minutes, followed by 3 PBS/centrifugation wash steps. After each centrifugation step, the supernatant was removed and the concentration of α-Syn in the supernatant was calculated from absorbance at 280 nm. The pellet was resuspended in PBS, and the concentration of fibrils was estimated by subtracting the total amount of α-Syn in the supernatant from all the wash steps and confirmed by BCA assay before use.
as §1, with “Competition studies were carried out using 5 nM [^3H]BF-227. Experiments” for “Experiments”, “equation.[7] Data analysis was performed with GraphPad Prism version 7.02.” for “equation.[7]”
Results are expressed as inhibition constants (Ki, nM) corrected for ligand occupancy.[7] Each value is a geometric mean from the indicated numbers of experiments (n), with the numbers in parentheses indicating the low and high errors of the geometric mean. Also shown are the Log P, tPSA, and CLogP values for these compounds. These can be compared with means for the 5 Aβ imaging agents which can serve as an empirical training set to judge the likely in vivo behavior of new compounds.

synthetic α-Syn fibrils = target: synthetic α-Syn fibrils; set-up: method as in PMID 19576880; conditions: reported value; cited from earlier work
synthetic Aβ fibrils [1] = target: synthetic Aβ fibrils; set-up: method as in PMID 17401091; conditions: reported value; cited from earlier work
synthetic Aβ fibrils [2] = target: synthetic Aβ fibrils; set-up: method as in PMID 19576880; conditions: reported value; cited from earlier work
Lewy body = system: Lewy body; set-up: method as in PMID 19576880; conditions: high concentration (100 μM); cited from earlier work
[3] = system: α-Syn-positive, Aβ-negative dementia with Lewy body human brain homgenates; set-up: method as in PMID 28826526; conditions: cited from earlier work

T1 sequence (P05067 672-713 limits assumed): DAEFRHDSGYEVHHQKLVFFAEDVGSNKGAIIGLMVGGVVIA

SMILES	Ki (Aβ1-42 fibrils)	Ki (human α-Syn fibrils)	Ki(Aβ)/Ki(α-Syn) (human α-Syn fibrils)	other results
COc1cc(/C=C/c2ccc(N)cc2)ccc1/C=C/c1ccc(N)cc1 [BMB, 1,4-bis(paminostyryl)-2-methoxy benzene, reference compound]	76 nM	184 nM	–	–
CNc1ccc(-c2nc3ccccc3s2)cc1 [BTA-1, reference compound]	–	64 nM	–	–
C#CCN(C)CCCOc1ccc(Cl)cc1Cl [Clorgyline, reference compound]	> 5000 nM	> 9000 nM	–	–
CN(C)c1ncc(C=Cc2nc3ccc(OCCF)cc3o2)s1 [Compound 1, 2-(2-[2-dimethylaminothiazol-5-yl]ethenyl)-6-(2-[fluoro]ethoxy)benzoxazole]	12 nM	53 nM	0.23	Kd (synthetic α-Syn fibrils): 9.3 nM; Kd (synthetic Aβ fibrils [1]): 4.1 nM; Kd (synthetic Aβ fibrils [2]): 1.31 nM; Lewy body fluorescence in histochemical analysis (Lewy body): led to Lewy body fluorescence
CN(C)c1ncc(/C=C/c2nc3ccc(OCCCF)cc3o2)s1 [Compound 2]	9.01 nM	157 nM	0.06	–
CN(C)c1ncc(/C=C/c2nc3ccc(OCCCCF)cc3o2)s1 [Compound 3]	31 nM	378 nM	0.08	–
CN(C)c1ncc(/C=C/c2nc3ccc(OCCCCCF)cc3o2)s1 [Compound 4]	28 nM	297 nM	0.09	–
CN(C)c1ncc(/C=C/c2nc3ccc(OCCCCCCF)cc3o2)s1 [Compound 5]	23 nM	462 nM	0.05	–
CN(C)c1ncc(/C=C/c2nc3ccc(OCCCCCCCF)cc3o2)s1 [Compound 6]	27 nM	212 nM	0.13	–
CN(C)c1ncc(/C=C/c2nc3ccc(OCCOCCF)cc3o2)s1 [Compound 7]	11 nM	83 nM	0.13	–
CN(C)c1ncc(/C=C/c2nc3ccc(OCCOCCOCCF)cc3o2)s1 [Compound 8]	13 nM	52 nM	0.25	–
CN(C)c1ncc(/C=C/c2nc3ccc(OCCOCCOCCOCCF)cc3o2)s1 [Compound 9]	26 nM	100 nM	0.26	–
CN(C)c1ncc(/C=C/c2nc3ccc(OCCOCCOCCOCCOCCF)cc3o2)s1 [Compound 10]	18 nM	75 nM	0.24	–
CN(C)c1ncc(/C=C/c2nc3ccc(I)cc3o2)s1 [Compound 11]	223 nM	–	0.30	–
CN(C)c1ncc(/C=C/c2nc3cc(I)ccc3o2)s1 [Compound 12]	96 nM	276 nM	0.35	–
Fc1ccc2nc(/C=C/c3ccccc3)oc2c1 [Compound 13]	1250 nM	328 nM	3.8	–
Fc1ccc2oc(/C=C/c3ccccc3)nc2c1 [Compound 14]	528 nM	238 nM	2.2	–
Fc1ccc2nc(/C=C/c3cncs3)oc2c1 [Compound 15]	1450 nM	286 nM	5.1	–
CNc1ccc(/C=C/c2ccc(OCCOCCOCCF)nc2)cc1 [Florbetapir (AV-45), reference compound]	12 nM	24 nM	0.46	–
CNc1ccc(-c2cc3cc(O)ccc3o2)c(F)n1 [Flutafuranol (NAV 4694), reference compound]	42 nM	32 nM	1.34	–
CNc1ccc(-c2nc3ccc(O)cc3s2)cc1F [Flutemetamol, reference compound]	65 nM	48 nM	1.35	–
CNc1ccc(-c2nc3ccc(O)cc3s2)cc1 [PiB, reference compound]	–	55 nM	–	–
NCCNC(=O)c1ccc(Cl)cc1 [RO-16-6491, reference compound]	> 7000 nM	> 9000 nM	–	–
CN(C)c1ncc(C=Cc2nc3ccc(OCCF)cc3o2)s1 [[^18F]BF-227]	–	–	–	Binding to α-Syn-positive, Aβ-negative dementia with Lewy body human brain homogenates [3]: failed to bind
Cc1ccc2c(sc(-c3ccc4c(c3)sc(-c3ccc(N(C)C)cc3)[n+]4C)[n+]2C)c1S(=O)(=O)O [reference compound]	2150 nM	> 9000 nM	≤0.2	–
